Assay results taken from patent US6355799B1, “Substituted benzene compounds, process for their preparation, and herbicidal and defoliant compositions containing them” (ISK Americas Incorporated, priority 1997, dated 2002).

Legend:
Assay type in all cases: in vivo
[1] = test system: redroot pigweed (Amaranthus retroflexus, AMARE); assay: Pre-emerge test, greenhouse herbicide activity screening; conditions: rated 14 days after application, 0 = no damage, 100 = complete death
How it was run: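 Plants grown in 10 cm pots of sandy loam mix received acetone-dissolved compounds through a moving flat-fan nozzle. Doses ranged from 15 to 1000 g ai/ha. Pre-emerge pots were seeded one day earlier, post-emerge pots 8–21 days earlier. Fourteen days on, each pot was graded 0–100 for damage.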

[2] = test system: barnyardgrass (Echinochloa crus-galli, ECHCG); assay: as above; conditions: rated 14 days after application, 0 = no damage, 100 = complete death
How it was run: (§1)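 Applied at 15–1000 g ai/ha from acetone in 187 l/ha spray volume. Post-emergence applications included 0.25% v/v non-ionic surfactant and reached plants sown 8–21 days before. Pre-emergence applications were incorporated by surface watering. Efficacy or crop damage was rated on a 0–100 scale after 14 days.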

[3] = test system: green foxtail (Setaria viridis, SETVI); assay: as above; conditions: rated 14 days after application, 0 = no damage, 100 = complete death
How it was run: as §1

[4] = test system: ivyleaf morningglory (Ipomoea hederacea, IPOHE); assay: as above; conditions: rated 14 days after application, 0 = no damage, 100 = complete death
How it was run: as §1

[5] = test system: johnsongrass (Sorghum halepense, SORHA); assay: as above; conditions: rated 14 days after application, 0 = no damage, 100 = complete death
How it was run: as §1

[6] = test system: lambsquarters (Chenopodium album, CHEAL); assay: as above; conditions: rated 14 days after application, 0 = no damage, 100 = complete death
How it was run: as §1

[7] = test system: large crabgrass (Digitaria sanguinalis, DIGSA); assay: as above; conditions: rated 14 days after application, 0 = no damage, 100 = complete death
How it was run: as §1

[8] = test system: sicklepod (Cassia obtusifolia, CASOB); assay: as above; conditions: rated 14 days after application, 0 = no damage, 100 = complete death
How it was run: as §1

[9] = test system: velvetleaf (Abutilon theophrasti, ABUTH); assay: as above; conditions: rated 14 days after application, 0 = no damage, 100 = complete death
How it was run: as §1

[10] = test system: field corn (Zea mays L., var. Dekalb 535, CORN); assay: Pre-emerge test, crop safety; conditions: rated 14 days after application, 0 = no damage, 100 = complete death
How it was run: (§2)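 Compounds in acetone were track-sprayed at 15-1000 g ai/ha (187 l/ha) on sandy loam pots: pre-emerge one day after seeding, post-emerge at 2-3 leaf stage with 0.25% v/v non-ionic surfactant. Phytotoxicity was rated 14 days later on a 0 (no damage) to 100 (complete death) scale.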

[11] = test system: upland rice (Oryza sp., var. Tebonnet, RICE); assay: Pre-emerge test, crop safety; conditions: rated 14 days after application, 0 = no damage, 100 = complete death
How it was run: as §2

[12] = test system: barnyardgrass (Echinochloa crus-galli, ECHCG); assay: Post-emerge test, greenhouse herbicide activity screening; conditions: post-emerge, 14 days after application, rating scale 0-100
How it was run: (§3)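 Fourteen days after spraying, crop and weed injury was graded visually from 0, no effect, to 100, every plant dead. Test substances were dissolved in acetone and applied at 15–1000 g ai/ha with a flat-fan nozzle. Application was either pre-emergence, one day after sowing, or post-emergence at the 2–3 leaf stage.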

[13] = test system: common ragweed (Ambrosia artemisizfolia L., AMBEL); assay: as above; conditions: post-emerge, 14 days after application, rating scale 0-100
How it was run: as §3

[14] = test system: green foxtail (Setaria viridis, SETVI); assay: as above; conditions: post-emerge, 14 days after application, rating scale 0-100
How it was run: as §3

[15] = test system: ivyleaf morningglory (Ipomoea hederacea, IPOHE); assay: as above; conditions: post-emerge, 14 days after application, rating scale 0-100
How it was run: as §3

[16] = test system: johnsongrass (Sorghum halepense, SORHA); assay: as above; conditions: post-emerge, 14 days after application, rating scale 0-100
How it was run: as §3

[17] = test system: lambsquarters (Chenopodium album, CHEAL); assay: as above; conditions: post-emerge, 14 days after application, rating scale 0-100
How it was run: as §3

[18] = test system: large crabgrass (Digitaria sanguinalis, DIGSA); assay: as above; conditions: post-emerge, 14 days after application, rating scale 0-100
How it was run: as §3

[19] = test system: redroot pigweed (Amaranthus retroflexus, AMARE); assay: as above; conditions: post-emerge, 14 days after application, rating scale 0-100
How it was run: as §3

[20] = test system: sicklepod (Cassia obtusifolia, CASOB); assay: as above; conditions: post-emerge, 14 days after application, rating scale 0-100
How it was run: as §3

[21] = test system: velvetleaf (Abutilon theophrasti, ABUTH); assay: as above; conditions: post-emerge, 14 days after application, rating scale 0-100
How it was run: as §3

[22] = test system: field corn (Zea mays L., var. Dekalb 535, CORN); assay: Post-emerge test, crop safety; conditions: post-emerge, 14 days after application, rating scale 0-100
How it was run: as §1

[23] = test system: upland rice (Oryza sp., var. Tebonnet, RICE); assay: Post-emerge test, crop safety; conditions: post-emerge, 14 days after application, rating scale 0-100
How it was run: as §1

SMILES: COc1c(Cl)cc(F)c(-n2c(=O)cc(C(F)(F)F)n(C)c2=O)c1NC(=O)c1ccc2c(c1)OCO2 [2-73]
- Pre-emerge Herbicidal Activity, phytotoxicity rating (0-100), AMARE ([1]; 63 g ai/ha): 100
- Pre-emerge Herbicidal Activity, phytotoxicity rating (0-100), AMARE ([1]; 250 g ai/ha): 100
- Pre-emerge Herbicidal Activity, phytotoxicity rating (0-100), ECHCG ([2]; 63 g ai/ha): 90
- Pre-emerge Herbicidal Activity, phytotoxicity rating (0-100), ECHCG ([2]; 250 g ai/ha): 100
- Pre-emerge Herbicidal Activity, phytotoxicity rating (0-100), SETVI ([3]; 63 g ai/ha): 100
- Pre-emerge Herbicidal Activity, phytotoxicity rating (0-100), SETVI ([3]; 250 g ai/ha): 100
- Pre-emerge Herbicidal Activity, phytotoxicity rating (0-100), IPOHE ([4]; 63 g ai/ha): 90
- Pre-emerge Herbicidal Activity, phytotoxicity rating (0-100), IPOHE ([4]; 250 g ai/ha): 100
- Pre-emerge Herbicidal Activity, phytotoxicity rating (0-100), SORHA ([5]; 63 g ai/ha): 75
- Pre-emerge Herbicidal Activity, phytotoxicity rating (0-100), SORHA ([5]; 250 g ai/ha): 100
- Pre-emerge Herbicidal Activity, phytotoxicity rating (0-100), CHEAL ([6]; 63 g ai/ha): 100
- Pre-emerge Herbicidal Activity, phytotoxicity rating (0-100), CHEAL ([6]; 250 g ai/ha): 100
- Pre-emerge Herbicidal Activity, phytotoxicity rating (0-100), DIGSA ([7]; 63 g ai/ha): 100
- Pre-emerge Herbicidal Activity, phytotoxicity rating (0-100), DIGSA ([7]; 250 g ai/ha): 100
- Pre-emerge Herbicidal Activity, phytotoxicity rating (0-100), CASOB ([8]; 63 g ai/ha): 100
- Pre-emerge Herbicidal Activity, phytotoxicity rating (0-100), CASOB ([8]; 250 g ai/ha): 100
- Pre-emerge Herbicidal Activity, phytotoxicity rating (0-100), ABUTH ([9]; 63 g ai/ha): 100
- Pre-emerge Herbicidal Activity, phytotoxicity rating (0-100), ABUTH ([9]; 250 g ai/ha): 100
- Pre-emerge phytotoxicity rating (0-100), crop damage, CORN ([10]; 63 g ai/ha): 50
- Pre-emerge phytotoxicity rating (0-100), crop damage, CORN ([10]; 250 g ai/ha): 95
- Pre-emerge phytotoxicity rating (0-100), crop damage, RICE ([11]; 63 g ai/ha): 80
- Pre-emerge phytotoxicity rating (0-100), crop damage, RICE ([11]; 250 g ai/ha): 100
- phytotoxicity rating ECHCG ([12]; 63 g ai/ha): 30
- phytotoxicity rating ECHCG ([12]; 250 g ai/ha): 60
- phytotoxicity rating AMBEL ([13]; 63 g ai/ha): 100
- phytotoxicity rating AMBEL ([13]; 250 g ai/ha): 100
- phytotoxicity rating SETVI ([14]; 63 g ai/ha): 50
- phytotoxicity rating SETVI ([14]; 250 g ai/ha): 90
- phytotoxicity rating IPOHE ([15]; 63 g ai/ha): 100
- phytotoxicity rating IPOHE ([15]; 250 g ai/ha): 100
- phytotoxicity rating SORHA ([16]; 63 g ai/ha): 10
- phytotoxicity rating SORHA ([16]; 250 g ai/ha): 50
- phytotoxicity rating CHEAL ([17]; 63 g ai/ha): 70
- phytotoxicity rating CHEAL ([17]; 250 g ai/ha): 95
- phytotoxicity rating DIGSA ([18]; 63 g ai/ha): 30
- phytotoxicity rating DIGSA ([18]; 250 g ai/ha): 30
- phytotoxicity rating AMARE ([19]; 63 g ai/ha): 100
- phytotoxicity rating AMARE ([19]; 250 g ai/ha): 100
- phytotoxicity rating CASOB ([20]; 63 g ai/ha): 60
- phytotoxicity rating CASOB ([20]; 250 g ai/ha): 100
- phytotoxicity rating ABUTH ([21]; 63 g ai/ha): 100
- phytotoxicity rating ABUTH ([21]; 250 g ai/ha): 100
- phytotoxicity rating CORN ([22]; 63 g ai/ha): 25
- phytotoxicity rating CORN ([22]; 250 g ai/ha): 50
- phytotoxicity rating RICE ([23]; 63 g ai/ha): 20
- phytotoxicity rating RICE ([23]; 250 g ai/ha): 70
